A value given as a limit tells only on which side of the number the result lay.

The target in test [1] is T1, Interstitial collagenase (Homo sapiens, UniProt P03956).
T1 sequence (P03956 whole entry): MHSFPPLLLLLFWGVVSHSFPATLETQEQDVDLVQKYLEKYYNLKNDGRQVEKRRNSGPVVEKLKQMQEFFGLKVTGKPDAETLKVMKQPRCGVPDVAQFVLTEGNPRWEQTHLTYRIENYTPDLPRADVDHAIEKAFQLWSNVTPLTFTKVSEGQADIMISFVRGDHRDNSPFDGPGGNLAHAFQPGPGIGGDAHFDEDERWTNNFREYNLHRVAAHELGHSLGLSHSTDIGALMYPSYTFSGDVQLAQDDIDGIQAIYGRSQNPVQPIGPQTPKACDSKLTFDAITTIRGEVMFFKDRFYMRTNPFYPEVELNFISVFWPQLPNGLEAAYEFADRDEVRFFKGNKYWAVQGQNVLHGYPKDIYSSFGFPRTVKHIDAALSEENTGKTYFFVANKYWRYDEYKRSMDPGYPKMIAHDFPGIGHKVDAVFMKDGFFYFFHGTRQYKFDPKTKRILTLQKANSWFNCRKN
The experiment in a line: Inhibition of Matrix metalloprotease-1.

Test [2] concerns the target Procathepsin L (Homo sapiens, UniProt P07711). In words: Inhibition of Cathepsin L from human kidney. The class given is tissue-based.

Procathepsin L, sequence (P07711 whole entry): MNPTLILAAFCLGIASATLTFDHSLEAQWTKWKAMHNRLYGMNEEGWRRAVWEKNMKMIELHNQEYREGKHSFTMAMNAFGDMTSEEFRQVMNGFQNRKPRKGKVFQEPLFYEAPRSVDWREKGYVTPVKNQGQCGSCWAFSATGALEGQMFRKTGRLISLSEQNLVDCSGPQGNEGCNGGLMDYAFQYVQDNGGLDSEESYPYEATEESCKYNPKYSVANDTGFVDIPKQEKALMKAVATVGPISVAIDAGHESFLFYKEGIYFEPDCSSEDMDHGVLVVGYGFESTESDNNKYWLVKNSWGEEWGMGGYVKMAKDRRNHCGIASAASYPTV

A word on the IC50: it is the concentration that inhibits the measured activity by half. For `CC(C)C[C@H](CC(=O)NO)C(=O)N[C@@H](Cc1ccccc1)C(=O)NCC=O`, the half-inhibitory concentration (IC50) in test [1] is 12 nM; in test [2], 4300 nM.

Take `CC(C)C[C@H](CC(=O)NO)C(=O)N[C@@H](CC(C)C)C(=O)N[C@@H](C)C=O`: the IC50 in test [1] was determined as 47 nM; in test [2] it was 23 nM.

For the molecule `CNC(=O)[C@H](Cc1ccccc1)NC(=O)[C@@H](CC(=O)NO)CC(C)C`, in test [2], the 50% inhibitory concentration (IC50) is over 1000 nM.

Regarding `CCOC(OCC)[C@H](C)NC(=O)[C@H](Cc1ccccc1)NC(=O)[C@@H](CC(=O)NO)CC(C)C`, the results for the concentration for half-maximal inhibition (IC50) in test [1] and in test [2] were 29 nM and over 1000 nM, respectively.

As to `CC(C)C[C@H](CC(=O)NO)C(=O)N[C@@H](Cc1ccccc1)C(=O)N[C@@H](C)C=O`, the figures for the half-maximal inhibitory concentration (IC50) in test [1] and in test [2] were 25 nM and 15 nM, respectively.

For `CC(C)C[C@H](CC(=O)NO)C(=O)N[C@@H](Cc1ccccc1)C(=O)N[C@H](C=O)CC(C)C`, the IC50 in test [1] came out at 1400 nM; in test [2], 7 nM.

With `C[C@@H](C=O)NC(=O)[C@H](Cc1ccccc1)NC(=O)OCc1ccccc1`, the IC50 was over 1000 nM in test [1] and 3 nM in test [2].

Values taken from ChEMBL document CHEMBL1135034, “Design and synthesis of dual inhibitors for matrix metalloproteinase and cathepsin” (Bioorg Med Chem Lett, 2002).
